Laboratory results taken from paper PMC3454389, “Mining the Sinorhizobium meliloti Transportome to Develop FRET Biosensors for Sugars, Dicarboxylates and Cyclic Polyols” (PLoS ONE, 2012).
One block for each molecule: values may come before it.

Tests used:
[1] = target: SMb20036-CY (Sinorhizobium meliloti, UniProt Q92XC3); assay: biochemical; type: binding; settings: compounds similar in structure to D-quinic acid
Procedure: (§1) Ligand-induced FRET ratio changes of purified FRET biosensor were screened using a LS55 luminescence spectrometer (PerkinElmer Instruments). Excitation (ex.) was at (λ/slit width) 433/10 nm (CFP) or 549/10 nm (OFP). Emission (em.) was measured at 475/10 nm (CFP), 527/10 nm (YFP), 573/10 nm (OFP) and 644/10 nm (RFP). To confirm that Aphrodite and mKate2 were properly folded their fluorescence was individually tested by direct excitation at 510/6 nm and 588/10 nm respectively.
(§2) Affinity constants (Kd) of FRET biosensors with specific ligands were established using a monochromator microplate reader (Safire, Tecan, Switzerland; CFP ex.: (λ\bandwidth) 433/12 nm, em.: 475/12 nm; YFP em.: 527/12 nm. OFP ex.: 533/12 nm, em.: 563/12 nm; RFP em.: 615/12 nm). Proteins were diluted to give relative fluorescence units (RFU) in the detection range of 30,000 to 50,000 RFU at a gain of 90 to 100, and then were added to a dilution series (10^−3 to 10^−11 M) of ligand in Tris-HCl (pH 8.5, 50 mM). The change in relative emission intensities at 527/477 nm (YFP/CFP) or 615/563 nm (RFP/OFP) was used to determine Kd by fitting the titration curves to a single-site-binding isotherm: [drawing 1] with: R, ratio; Rapo, ratio without ligand; Rsat, ratio at saturation of ligand; n, number of equal binding sites; [L], ligand concentration. Non-linear regression was used to fit the curves using SigmaPlot 11 (Systat Software Inc.) (Hill equation, 4 Parameters, b = 1). All measurements were done in quadruplicate.

[2] = target: SMc04259-CY (Sinorhizobium meliloti, UniProt Q92P64); assay: FRET biosensor SMc04259-CY, in vitro ligand titration; type: binding; settings: SMc04259-CY
Sequence of SMc04259-CY (Q92P64 entry or part of it): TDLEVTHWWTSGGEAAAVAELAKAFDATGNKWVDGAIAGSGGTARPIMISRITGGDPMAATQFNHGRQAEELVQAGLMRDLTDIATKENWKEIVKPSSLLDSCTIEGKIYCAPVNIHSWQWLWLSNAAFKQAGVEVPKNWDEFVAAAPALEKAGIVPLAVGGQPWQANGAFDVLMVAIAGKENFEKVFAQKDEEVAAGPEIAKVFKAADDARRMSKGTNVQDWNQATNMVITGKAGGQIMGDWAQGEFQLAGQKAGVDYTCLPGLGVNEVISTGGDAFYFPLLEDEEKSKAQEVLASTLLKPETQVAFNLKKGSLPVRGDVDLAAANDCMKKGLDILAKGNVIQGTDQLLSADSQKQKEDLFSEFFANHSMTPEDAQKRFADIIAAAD
Procedure: as §1, §2

[3] = target: T1, eCFP-MglB-Aphrodite fusion protein (Escherichia coli, UniProt P0AEE5, F39A); settings: MglB sensors, depended on linker length; cited from earlier work
T1 construct: MglB core from pFLIPglu600µΔ13 - SpeI - BD cloning in pCYS - For; made in house; host or cells: E. coli Rosetta2
T1 sequence (P0AEE5 24-332 F39A limits assumed): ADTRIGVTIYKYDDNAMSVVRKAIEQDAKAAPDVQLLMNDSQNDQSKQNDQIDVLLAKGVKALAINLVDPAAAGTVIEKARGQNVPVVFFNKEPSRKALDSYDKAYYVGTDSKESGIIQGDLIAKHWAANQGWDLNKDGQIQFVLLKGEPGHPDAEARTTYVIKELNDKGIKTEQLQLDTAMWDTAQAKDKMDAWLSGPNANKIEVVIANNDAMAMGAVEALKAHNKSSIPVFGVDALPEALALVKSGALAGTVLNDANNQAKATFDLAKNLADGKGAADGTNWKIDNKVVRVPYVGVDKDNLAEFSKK

[4] = target: T2, RL2376-CY (Rhizobium leguminosarum, UniProt Q1MGQ3); assay: FRET biosensor RL2376-CY, in vitro ligand titration; type: binding
T2 sequence (Q1MGQ3 24-320): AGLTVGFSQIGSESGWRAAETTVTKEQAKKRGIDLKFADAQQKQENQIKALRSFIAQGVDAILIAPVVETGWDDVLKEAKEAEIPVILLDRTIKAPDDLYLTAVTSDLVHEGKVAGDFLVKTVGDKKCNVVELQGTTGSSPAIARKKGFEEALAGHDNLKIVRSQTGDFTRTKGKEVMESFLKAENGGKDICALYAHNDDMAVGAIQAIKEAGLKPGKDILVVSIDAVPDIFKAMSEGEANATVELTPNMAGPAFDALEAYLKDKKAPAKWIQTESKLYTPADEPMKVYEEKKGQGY
Procedure: as §1, §2

[5] = target: T1, eCFP-MglB-Aphrodite fusion protein; assay: Validation of pCYS with glucose binding protein MglB FRET fusion; settings: purified eCFP-MglB-Aphrodite from pLMB240 (pCYS)
Procedure: The FRET vector pCYS was tested by inserting the glucose binding protein from Escherichia coli (MglB). This SBP was reported to have a FRET Δ ratio ranging from −8% to −28% upon binding of glucose that depended on linker length. The purified eCFP-MglB-Aphrodite fusion protein from pLMB240 (Table S1) gave a FRET Δ ratio of −19%, thus validating this vector and the choice of short linkers (of four and three amino acids) which we had incorporated into its design (Fig. 1B).
as §1

[6] = target: T3, SMb20712-CY (Sinorhizobium meliloti, UniProt Q926E6); assay: FRET biosensor SMb20712-CY, in vitro ligand titration; type: binding
T3 sequence (Q926E6 21-309): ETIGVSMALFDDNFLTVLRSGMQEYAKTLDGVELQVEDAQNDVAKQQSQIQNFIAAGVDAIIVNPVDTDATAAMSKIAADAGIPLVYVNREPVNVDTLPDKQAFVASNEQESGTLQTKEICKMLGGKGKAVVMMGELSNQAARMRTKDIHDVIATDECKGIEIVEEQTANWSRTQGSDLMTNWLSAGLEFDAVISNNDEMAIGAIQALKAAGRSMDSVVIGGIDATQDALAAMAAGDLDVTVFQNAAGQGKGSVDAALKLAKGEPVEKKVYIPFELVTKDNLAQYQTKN
Procedure: as §1, §2

[7] = target: T4, rcc03024-CY (DctP) (Rhodobacter capsulatus, UniProt P37735); assay: FRET biosensor rcc03024-CY, in vitro ligand titration; type: binding; settings: for Kd: pCYS (pLMB414), Tris-HCl pH 8.5
T4 construct: made in house; host or cells: E. coli Rosetta2
T4 sequence (P37735 27-333): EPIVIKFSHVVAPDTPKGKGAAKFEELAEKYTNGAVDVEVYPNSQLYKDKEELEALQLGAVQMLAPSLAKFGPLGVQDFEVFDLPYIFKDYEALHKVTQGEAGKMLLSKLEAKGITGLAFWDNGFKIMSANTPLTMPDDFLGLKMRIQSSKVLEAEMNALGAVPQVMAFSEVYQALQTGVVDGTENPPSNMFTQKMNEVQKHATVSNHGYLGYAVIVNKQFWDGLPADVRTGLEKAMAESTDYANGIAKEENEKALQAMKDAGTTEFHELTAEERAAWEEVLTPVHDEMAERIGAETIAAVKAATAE
Text: Ligand-induced FRET ratio changes of purified FRET biosensor were screened using a LS55 luminescence spectrometer (PerkinElmer Instruments).
Non-linear regression was used to fit the curves using SigmaPlot 11 (Systat Software Inc.) (Hill equation, 4 Parameters, b = 1). All measurements were done in quadruplicate.

[8] = target: SMc02774-CY (Sinorhizobium meliloti, UniProt Q92TD7); assay: FRET biosensor SMc02774-CY, in vitro ligand titration; type: binding; settings: SMc02774-CY
Sequence of SMc02774-CY (Q92TD7 entry or part of it): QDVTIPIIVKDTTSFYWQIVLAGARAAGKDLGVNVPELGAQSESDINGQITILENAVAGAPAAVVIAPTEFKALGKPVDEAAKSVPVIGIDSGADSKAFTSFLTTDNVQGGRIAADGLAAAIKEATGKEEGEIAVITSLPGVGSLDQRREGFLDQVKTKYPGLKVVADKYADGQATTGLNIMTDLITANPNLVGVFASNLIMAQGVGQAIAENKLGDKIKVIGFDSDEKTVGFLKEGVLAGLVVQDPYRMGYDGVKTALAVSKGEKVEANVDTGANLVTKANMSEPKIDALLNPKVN
Procedure: as §1, §2

[9] = target: T5, rcc03024-RO (Rhodobacter capsulatus, UniProt P37735); assay: rcc03024-RO, FRET ratio change on ligand; type: binding
T5 construct: made in house; host or cells: E. coli Rosetta2
T5 sequence (P37735 27-333): T4 sequence (P37735 27-333)
Procedure: as §1
as §2, with “Non-linear regression was used to fit the curves using SigmaPlot 11 (Systat Software Inc.) (Hill equation, 4 Parameters, b = 1). All measurements were done in quadruplicate.” left out

[10] = target: SMc02324-CY (Sinorhizobium meliloti, UniProt Q92S11); assay: FRET biosensor SMc02324-CY, in vitro ligand titration; type: binding; settings: SMc02324-CY
Sequence of SMc02324-CY (Q92S11 entry or part of it): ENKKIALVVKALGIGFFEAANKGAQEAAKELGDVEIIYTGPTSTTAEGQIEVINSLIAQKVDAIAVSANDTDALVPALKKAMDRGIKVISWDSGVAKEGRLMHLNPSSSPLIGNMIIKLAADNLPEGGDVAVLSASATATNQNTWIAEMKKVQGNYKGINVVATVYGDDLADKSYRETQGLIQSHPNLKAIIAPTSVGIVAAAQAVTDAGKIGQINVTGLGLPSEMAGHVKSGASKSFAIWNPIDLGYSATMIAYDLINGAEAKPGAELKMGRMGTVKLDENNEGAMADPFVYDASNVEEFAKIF
Procedure: as §1, §2

[11] = test system: SMc04259-RO; assay: SMc04259-RO, FRET ratio change on ligand; type: binding, Sinorhizobium meliloti
Procedure: as §1
as §2, with “Non-linear regression was used to fit the curves using SigmaPlot 11 (Systat Software Inc.) (Hill equation, 4 Parameters, b = 1). All measurements were done in quadruplicate.” left out

Sequence of SMb20036-CY (Q92XC3 entry or part of it): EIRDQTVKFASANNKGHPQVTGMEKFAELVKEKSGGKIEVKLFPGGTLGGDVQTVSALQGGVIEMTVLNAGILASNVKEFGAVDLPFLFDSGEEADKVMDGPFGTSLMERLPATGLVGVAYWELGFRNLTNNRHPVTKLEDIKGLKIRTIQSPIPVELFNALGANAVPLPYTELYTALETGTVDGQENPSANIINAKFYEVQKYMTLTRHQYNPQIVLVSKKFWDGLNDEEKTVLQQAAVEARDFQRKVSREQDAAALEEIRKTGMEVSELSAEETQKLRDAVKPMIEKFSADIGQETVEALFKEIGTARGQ

Molecule: O=C(O)c1cc(O)c(O)c(O)c1 [gallic acid]
change in FRET ratio on addition of compound [1]: no change in FRET ratio

Molecule: OC[C@H]1OC(O)[C@H](O)[C@@H](O)[C@@H]1O (some centres unmarked) [glucose]
change in FRET with compound [2]: no change in FRET
FRET Δ ratio upon binding of glucose [3]: −8% to −28%
change in FRET ratio on addition of compound [4]: no change in FRET ratio
FRET Δ ratio [5]: −19%

Molecule: O=P(O)(O)O[C@@H]1[C@H](O)[C@H](O)[C@@H](OP(=O)(O)O)[C@H](OP(=O)(O)O)[C@H]1O [inositol 1,4,5-trisphosphate]
reaction of biosensor with compound (FRET) [6]: did not react

Molecule: OC[C@H]1O[C@@H](O[C@H]2[C@H](O)[C@@H](O)[C@H](O)O[C@@H]2CO)[C@H](O)[C@@H](O)[C@H]1O [lactose]
change in FRET with compound [2]: no change in FRET

Molecule: O=C(O)/C=C\C(=O)O [maleate]
change in FRET ratio on addition of compound [7]: no change in FRET ratio

Molecule: O=C(O)CC(=O)O [malonate]
change in FRET ratio on addition of compound [7]: no change in FRET ratio

Molecule: OC[C@H]1O[C@H](O[C@H]2[C@H](O)[C@@H](O)[C@H](O)O[C@@H]2CO)[C@H](O)[C@@H](O)[C@@H]1O [maltose]
change in FRET with compound [2]: no change in FRET

Molecule: OC[C@H]1OC(O)[C@@H](O)[C@@H](O)[C@@H]1O (some centres unmarked) [mannose]
change in FRET with compound [2]: no change in FRET

Molecule: O[C@H]1[C@H](O)[C@@H](O)[C@H](O)[C@@H](O)[C@H]1O [myo-inositol]
Kd ([6]; pCYS (pLMB319), Tris-HCl pH 8.5): 470 nM

Molecule: O=C(O)CC(=O)C(=O)O [oxaloacetate]
Kd [7]: 16000 nM

Molecule: O=P(O)(O)O[C@H]1[C@H](OP(=O)(O)O)[C@@H](OP(=O)(O)O)[C@H](OP(=O)(O)O)[C@@H](OP(=O)(O)O)[C@H]1OP(=O)(O)O [phytic acid]
reaction of biosensor with compound (FRET) [6]: did not react

Molecule: CC(=O)C(=O)O [pyruvate]
change in FRET ratio on addition of compound [7]: no change in FRET ratio
reaction of biosensor with compound (FRET) [8]: did not react

Molecule: O=C(O)CCC(=O)O [succinate]
change in FRET ratio on binding ligand [9]: no change in FRET ratio
ΔFRET on saturation (%) ([7]; change in FRET ratio on ligand binding): −2.7±0.2%
Kd [7]: 36 nM

Molecule: O=C(CO)[C@@H](O)[C@@H](O)[C@H](O)CO [tagatose]
reaction of biosensor with compound (FRET) [10]: did not react

Molecule: O=C[C@H](O)[C@@H](O)[C@H](O)CO [xylose]
change in FRET with compound [2]: no change in FRET

change in FRET ratio on addition of compound [7]: no change in FRET ratio
Molecule: O=C(O)CCC(=O)C(=O)O [α-ketoglutarate]

Molecule: gentiobiose
change in FRET ratio on binding ligand [11]: no change in FRET ratio
